Values of other authors in patent US12595109B2, “Device to release water and antimicrobial vapor into an enclosed or partially enclosed space” (Arkema Inc., priority 2020, dated 2026).
Read-outs that look alike come from different tables or passages of the source.

Assays:
[1] = tested on: Clostridium sporogenes (Spores)
[2] = tested on: Geobacillus stearothermophilus; settings: biological indicator, 2 mg/L gaseous H2O2
[3] = tested on: Bacillus subtilis (Spores)
[4] = tested on: Bacillus (Spores)
[5] = Liquid solution of H2O2, c(H2O2) = 370 mg l^−1, T = 24-25° C.
[6] = VPHP, c(H2O2) = 1-2 mg l^−1, T = 24-25° C.

Q: What does the source list for `OO` [hydrogen peroxide]?
A: D-value [1, 5]: 0.8 min; D-value [1, 6]: 0.5 to 1 min; D-value [2]: 0.8 min; D-value [3, 5]: 2.0 to 7.3 min; D-value [3, 6]: 0.5 to 1 min; D-value [4, 5]: 1.5 min; D-value [4, 6]: 1 to 2 min; maximum exposure (ACGIH, 5 times the TLV-TWA): no more than 5 ppm; TLV (ACGIH, 8 hour TWA): 1 ppm; STEL (United Kingdom and some other countries): 2 ppm; Short Term Exposures (STELs) (Washington and Hawaii): 3 ppm
